Measured values published in ChEMBL document CHEMBL1201862, “PubChem BioAssay data set” (2004).
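Cultured in 96-well plates, cells were exposed to test compound for 48 hours across five concentrations. Here, GI50 denotes the concentration required for 50% inhibition of growth.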 Active and inactive are the calls of the source. Cut-off read from the data, not from the text of the source: active = GI50 up to about 1.1 µM and inactive = higher.

Key:
Assay in all cases: NCI-60 cell line screen, 48 h
NCI/ADR-RES = system: NCI/ADR-RES
U-251 = system: U-251
HOP-62 = system: HOP-62
HCT-116 = system: HCT-116
T47D = system: T47D
LOX IMVI = system: LOX IMVI
SF-539 = system: SF-539
HT-29 = system: HT-29
UACC-62 = system: UACC-62
M14 = system: M14
SN12C = system: SN12C
KM12 = system: KM12
CAKI-1 = system: CAKI-1
MDA-MB-231 = system: MDA-MB-231
MCF7 = system: MCF7
786-0 = system: 786-0
HOP-92 = system: HOP-92
DU-145 = system: DU-145
SNB-75 = system: SNB-75
HCC 2998 = system: HCC 2998
BT-549 = system: BT-549
OVCAR-8 = system: OVCAR-8
EKVX = system: EKVX
MDA-N = system: MDA-N
SNB-19 = system: SNB-19
SK-MEL-5 = system: SK-MEL-5
PC-3 = system: PC-3
MDA-MB-435 = system: MDA-MB-435
K562 = system: K562
HL-60 = system: HL-60
OVCAR-5 = system: OVCAR-5
A549 = system: A549
SK-OV-3 = system: SK-OV-3
TK-10 = system: TK-10
SK-MEL-28 = system: SK-MEL-28
UACC-257 = system: UACC-257
NCI-H226 = system: NCI-H226
A498 = system: A498
ACHN = system: ACHN
NCI-H522 = system: NCI-H522
HCT-15 = system: HCT-15
CCRF-CEM = system: CCRF-CEM
SF-295 = system: SF-295
OVCAR-3 = system: OVCAR-3
SF-268 = system: SF-268
RXF 393 = system: RXF 393
IGROV-1 = system: IGROV-1
NCI-H460 = system: NCI-H460
OVCAR-4 = system: OVCAR-4
SR = system: SR
MOLT-4 = system: MOLT-4
UO-31 = system: UO-31
NCI-H23 = system: NCI-H23
Malme-3M = system: Malme-3M
COLO 205 = system: COLO 205
SK-MEL-2 = system: SK-MEL-2

## C[C@]12CC[C@H](O)CC1=CC[C@@H]1C2CC[C@]2(C)Nc3c(cnn3-c3ccc(F)cc3)CC12 (stereo partly specified)
NCI/ADR-RES
  GI50: 21.5 µM (inactive)
U-251
  GI50: 6.3 µM (inactive)
HOP-62
  GI50: 10.8 µM (inactive)
HCT-116
  GI50: 14.7 µM (inactive)
T47D
  GI50: > 42.7 µM (inactive)
LOX IMVI
  GI50: 3.2 µM (inactive)
SF-539
  GI50: 1.46 µM (inactive)
HT-29
  GI50: 5.94 µM (inactive)
UACC-62
  GI50: 14.6 µM (inactive)
M14
  GI50: > 100 µM (inactive)
SN12C
  GI50: 37.4 µM (inactive)
KM12
  GI50: 29.4 µM (inactive)
CAKI-1
  GI50: 64.6 µM (inactive)
MDA-MB-231
  GI50: > 41.8 µM (inactive)
MCF7
  GI50: > 52.2 µM (inactive)
786-0
  GI50: 3.09 µM (inactive)
HOP-92
  GI50: 21.4 µM (inactive)
DU-145
  GI50: 32 µM (inactive)
SNB-75
  GI50: 2.71 µM (inactive)
HCC 2998
  GI50: > 68.2 µM (inactive)
BT-549
  GI50: 14.4 µM (inactive)
OVCAR-8
  GI50: 23.3 µM (inactive)
EKVX
  GI50: 79.6 µM (inactive)
MDA-N
  GI50: > 53.8 µM (inactive)
SNB-19
  GI50: 19.3 µM (inactive)
SK-MEL-5
  GI50: 25.2 µM (inactive)
PC-3
  GI50: 14.1 µM (inactive)
MDA-MB-435
  GI50: 41.2 µM (inactive)
K562
  GI50: 2.25 µM (inactive)
HL-60
  GI50: 4.12 µM (inactive)
OVCAR-5
  GI50: > 100 µM (inactive)
A549
  GI50: 52.1 µM (inactive)
SK-OV-3
  GI50: 15.7 µM (inactive)
TK-10
  GI50: 78.2 µM (inactive)
SK-MEL-28
  GI50: 3.49 µM (inactive)
UACC-257
  GI50: 60.8 µM (inactive)
NCI-H226
  GI50: 40.9 µM (inactive)
A498
  GI50: 2.17 µM (inactive)
ACHN
  GI50: 16 µM (inactive)
NCI-H522
  GI50: 48.1 µM (inactive)
HCT-15
  GI50: > 100 µM
CCRF-CEM
  GI50: 2.94 µM (inactive)
SF-295
  GI50: 2.43 µM (inactive)
OVCAR-3
  GI50: 48.5 µM (inactive)
SF-268
  GI50: 26.1 µM (inactive)
RXF 393
  GI50: 2.25 µM (inactive)
IGROV-1
  GI50: > 100 µM (inactive)
NCI-H460
  GI50: 3.51 µM (inactive)
OVCAR-4
  GI50: 19 µM (inactive)
SR
  GI50: > 100 µM (inactive)
MOLT-4
  GI50: 3.48 µM (inactive)
UO-31
  GI50: > 39.4 µM (inactive)
NCI-H23
  GI50: 26.5 µM (inactive)
Malme-3M
  GI50: 14.2 µM (inactive)

## O=c1c(O)c(-c2ccccc2)oc2c(CP(=O)(O)O)cccc12
U-251
  GI50: > 100 µM (inactive)
HOP-62
  GI50: 8.55 µM (inactive)
HCT-116
  GI50: > 100 µM (inactive)
T47D
  GI50: > 100 µM (inactive)
SF-539
  GI50: > 100 µM (inactive)
UACC-62
  GI50: > 100 µM (inactive)
M14
  GI50: > 100 µM (inactive)
SN12C
  GI50: > 100 µM (inactive)
CAKI-1
  GI50: > 100 µM (inactive)
MDA-MB-231
  GI50: > 100 µM (inactive)
MCF7
  GI50: > 100 µM (inactive)
786-0
  GI50: > 100 µM (inactive)
DU-145
  GI50: > 100 µM (inactive)
COLO 205
  GI50: > 100 µM (inactive)
HCC 2998
  GI50: > 100 µM (inactive)
BT-549
  GI50: > 100 µM (inactive)
EKVX
  GI50: > 100 µM (inactive)
MDA-N
  GI50: > 100 µM (inactive)
SK-MEL-5
  GI50: > 100 µM (inactive)
PC-3
  GI50: > 100 µM (inactive)
MDA-MB-435
  GI50: > 100 µM (inactive)
K562
  GI50: > 100 µM (inactive)
OVCAR-5
  GI50: > 100 µM (inactive)
A549
  GI50: > 100 µM (inactive)
SK-OV-3
  GI50: > 100 µM (inactive)
TK-10
  GI50: > 100 µM (inactive)
UACC-257
  GI50: > 100 µM (inactive)
A498
  GI50: > 100 µM (inactive)
NCI-H522
  GI50: > 100 µM (inactive)
HCT-15
  GI50: > 100 µM
CCRF-CEM
  GI50: > 100 µM (inactive)
SF-295
  GI50: > 100 µM (inactive)
OVCAR-3
  GI50: > 100 µM (inactive)
RXF 393
  GI50: > 100 µM (inactive)
IGROV-1
  GI50: > 100 µM (inactive)
NCI-H460
  GI50: > 100 µM (inactive)
OVCAR-4
  GI50: > 100 µM (inactive)
SR
  GI50: > 100 µM (inactive)
MOLT-4
  GI50: > 100 µM (inactive)
NCI-H23
  GI50: > 100 µM (inactive)
SK-MEL-2
  GI50: > 100 µM (inactive)
Malme-3M
  GI50: > 100 µM (inactive)
